Reference: ChEMBL document CHEMBL2390948, “Stapled peptide-based membrane fusion inhibitors of hepatitis C virus” (Bioorg Med Chem, 2013)
pEC50: −log10 of the molar value. Bridge positions count the residues as written; N and C are the ends. Square brackets hold non-standard residues; d marks the D form. Peptide text beside a SMILES is read from it. R8 = C=CCCCCCC[C@@](C)(N)C(=O)O; S8 = C=CCCCCCC[C@](C)(N)C(=O)O; R5 = C=CCCC[C@@](C)(N)C(=O)O; S5 = C=CCCC[C@](C)(N)C(=O)O

How the values were obtained:
Hepatitis C virus [1] = test: Antiviral activity against HCV at 50 uM; assay type: functional, Hepacivirus hominis
Hepatitis C virus [2] = test: Antiviral activity against HCV JFH-1 infected in human Huh 7.5.1 cells after 2 days by firefly luciferase reporter gene assay; assay type: functional, organism-based, Hepacivirus hominis; conditions: JFH-1, Huh-7.5.1, 48 h
Hepatitis C virus [3] = test: Inhibition of HCV 1b con1 envelope glycoprotein E2 interaction to cell surface protein CD81 in human Huh 7.5.1 cells after 2 days by firefly luciferase based luminescene assay; assay type: organism-based, Hepacivirus hominis; conditions: Con1, Huh-7.5.1, 48 h
[4] = Half life of the compound in presence of chymotrypsin at 20 uM by HPLC analysis; assay type: physicochemical
[5] = Inhibition of HCV JFH-1 envelope glycoprotein E2 interaction to cell surface protein CD81 in human Huh 7.5.1 cells after 2 days by firefly luciferase based luminescene assay; set-up: species or system Hepatitis C virus JFH-1
[6] = Cytotoxicity against human Huh7.5.1 cells at 1000 ug/ml after 48 hrs by WST-1 assay; assay type: cell-based
Hepacivirus hominis = test: Inhibition of HCV envelope glycoprotein E2 interaction to human cell surface protein CD81

O=C(OCc1ccccc1)c1ccccc1O [BENZYL SALICYLATE]
inhibition at 50 µM (Hepatitis C virus [1]): 25%

CC[C@H](C)[C@@H]1NC(=O)[C@@](C)(NC(=O)[C@H](CC(N)=O)NC(=O)[C@H](CO)NC(=O)CNC(=O)[C@H](CO)NC(=O)[C@@H]2CCCN2C(C)=O)CCC/C=C\CCC[C@@](C)(C(=O)N[C@@H](Cc2ccccc2)C(=O)N[C@@H](CCCCN)C(=O)N[C@@H](CCC(=O)O)C(=O)N[C@@H](CC(=O)O)C(N)=O)NC(=O)[C@H](CC(N)=O)NC(=O)[C@H](CO)NC1=O (Ac-PSGSN[S5]ISN[S5]FKED-NH2; staple (Z) 6-10)
pEC50 (Hepatitis C virus [2]): 3.62
pEC50 (Hepatitis C virus [3]): 3.50
half-life at 20 µM [4]: > 3.33 h
pEC50 [5]: 3.70

CC[C@H](C)[C@@H]1NC(=O)[C@H](CC(N)=O)NC(=O)[C@H](CO)NC(=O)[C@](C)(NC(=O)[C@H](CO)NC(=O)[C@@H]2CCCN2C(C)=O)CCCCCC/C=C\CCC[C@](C)(C(=O)N[C@@H](Cc2ccccc2)C(=O)N[C@@H](CCCCN)C(=O)N[C@@H](CCC(=O)O)C(=O)N[C@@H](CC(=O)O)C(N)=O)NC(=O)[C@H](CC(N)=O)NC(=O)[C@H](CO)NC(=O)[C@H]([C@@H](C)CC)NC1=O (Ac-PS[R8]SNIISN[R5]FKED-NH2; staple (Z) 3-10)
pEC50 (Hepatitis C virus [2]): 4.41
pEC50 (Hepatitis C virus [3]): 4.46
half-life at 20 µM [4]: > 3.33 h
Activity [6]: Non-toxic
pEC50 [5]: 4.77

CC[C@H](C)[C@@H]1NC(=O)[C@H](CC(N)=O)NC(=O)[C@@](C)(NC(=O)CNC(=O)[C@H](CO)NC(=O)[C@@H]2CCCN2C(C)=O)CCC/C=C\CCC[C@@](C)(C(=O)N[C@@H](CC(N)=O)C(=O)N[C@@H](CC(C)C)C(=O)N[C@@H](Cc2ccccc2)C(=O)N[C@@H](CCCCN)C(=O)N[C@@H](CCC(=O)O)C(=O)N[C@@H](CC(=O)O)C(N)=O)NC(=O)[C@H]([C@@H](C)CC)NC1=O (Ac-PSG[S5]NII[S5]NLFKED-NH2; staple (Z) 4-8)
pEC50 (Hepatitis C virus [2]): 4.40
pEC50 (Hepatitis C virus [3]): 3.79
half-life at 20 µM [4]: > 3.33 h
pEC50 [5]: 4.68

CCN(CCN(CC)C(=O)c1nc[nH]c1C(=O)N[C@H](C(=O)OCc1ccccc1)C(C)C)C(=O)c1nc[nH]c1C(=O)N[C@H](C(=O)OCc1ccccc1)C(C)C
INH (Hepacivirus hominis): 53 µM

CC[C@H](C)[C@@H]1NC(=O)[C@H]([C@@H](C)CC)NC(=O)[C@@](C)(NC(=O)[C@H](CO)NC(=O)CNC(=O)[C@H](CO)NC(=O)[C@@H]2CCCN2C(C)=O)CCCCCC/C=C/CCC[C@@](C)(C(=O)N[C@@H](CCC(=O)O)C(=O)N[C@@H](CC(=O)O)C(N)=O)NC(=O)[C@H](Cc2ccccc2)NC(=O)[C@H](CC(C)C)NC(=O)[C@H](CC(N)=O)NC(=O)[C@H](CO)NC1=O (Ac-PSGS[S8]IISNLF[S5]ED-NH2; staple (E) 5-12)
pEC50 (Hepatitis C virus [2]): 3.45
pEC50 (Hepatitis C virus [3]): 3.51
half-life at 20 µM [4]: > 3.33 h
pEC50 [5]: 4.11

CC[C@H](C)[C@H](NC(=O)[C@H](CC(N)=O)NC(=O)[C@H](CO)NC(=O)CNC(=O)[C@H](CO)NC(=O)[C@@H]1CCCN1C(C)=O)C(=O)N[C@H](C(=O)N[C@@]1(C)CCC/C=C\CCC[C@@](C)(C(=O)N[C@@H](CCC(=O)O)C(=O)N[C@@H](CC(=O)O)C(N)=O)NC(=O)[C@H](Cc2ccccc2)NC(=O)[C@H](CC(C)C)NC(=O)[C@H](CC(N)=O)NC1=O)[C@@H](C)CC (Ac-PSGSNII[S5]NLF[S5]ED-NH2; staple (Z) 8-12)
pEC50 (Hepatitis C virus [2]): 3.74
pEC50 (Hepatitis C virus [3]): 3.55
half-life at 20 µM [4]: > 3.33 h
pEC50 [5]: 3.50

Ac-PSGSNIISNLFKED-NH2
pEC50 (Hepatitis C virus [2]): 3.61
pEC50 (Hepatitis C virus [3]): 3.49
half-life at 20 µM [4]: 0.167 h
Activity [6]: Non-toxic
pEC50 [5]: 3.49

CCN(CCN(CC)C(=O)c1nc[nH]c1C(=O)N[C@@H](CC(C)C)C(=O)OCc1ccccc1)C(=O)c1nc[nH]c1C(=O)N[C@@H](CC(C)C)C(=O)OCc1ccccc1
INH (Hepacivirus hominis): 38 µM
